# Paper PMC6511942, “Exploitation of Antibiotic Resistance as a Novel Drug Target: Development of a β-Lactamase-Activated Antibacterial Prodrug” (Journal of Medicinal Chemistry, 2019)
# Values joined by “and” are separate entries in the source; they are usually repeats but may differ in a detail not shown here. Identical values can stand only once. Like-named read-outs stand apart in the source and are kept apart here.
# Tests used:
# recombinant DNA gyrase = target: T1, recombinant DNA gyrase (Escherichia coli, UniProt P0AES4+P0AES6); assay: Recombinant DNA gyrase supercoiling assay ± CTX-M-15; assay type: biochemical, E. coli
# T1 construct: purchased Inspiralis
# [1] = tested on: Ec17 (CTX-M-15, ciprofloxacin sensitive); assay: microbe, parasite or virus in culture; assay type: cell-based, E. coli
# E. coli CFT073 pEMP = assay: Bactericidal activity (survival by CFU counts), CFT073 pEMP; assay type: cell-based; settings: 78 nM, CFU counts over time
# Description: Finally, the ability of prodrug 35 to kill bacteria rather than arrest growth was evaluated. […]
# determined as the lowest concentration of antibiotic that inhibited visible bacterial growth.
# OD595 measurements were recorded on a BioRad 1Mark Microplate Reader. Measurements were background corrected against the no-inoculum control and normalized to the no-drug […]
# Determination of bactericidal activity
# Stationary-phase bacteria were inoculated into 3 ml MHB containing no antibiotic, […]
# subsequently incubated at 37 °C with shaking (180 r.p.m.) and bacterial viability determined […]
# been shown previously to be bactericidal.
# Recombinant β-lactamase assay
# Each compound was incubated for 1 hour at room temperature in 100 mM NaPO4 (pH 7) ± 0.5 M NaOH. The wavelength at which the difference between un-hydrolysed and hydrolysed compound was the greatest was selected (typically 263 nm) and a compound concentration vs. absorbance standard curve was generated. Compounds, typically 250 μM in assay buffer (100 mM NaPO4 (pH 7)), were dispensed into a Corning 96-well UV transparent flat bottom plate. Recombinant Amp-C in assay buffer was added immediately before incubatio n in the microplate reader at 37 °C. UV absorbance was measured every 20 s for 1 h on a BMG LABTECH SPECTROstarNano. Kinetic parameters were determined by half -life analysis.
# NMR β-lactamase hydrolysis assay […]
# E. coli CFT073 pCTX-M-1 = assay: Bactericidal activity (survival by CFU counts), CFT073 pCTX-M-1; assay type: cell-based; settings: 78 nM
# CFT073 pNDM (NDM-1) = assay: microbe, parasite or virus in culture; assay type: cell-based, E. coli; settings: Escherichia coli, read-out: MIC value pNDM
# [2] = tested on: Ec11 (CTX-M-15, ciprofloxacin sensitive); assay: microbe, parasite or virus in culture; assay type: cell-based, E. coli
# CFT073 + pSU18 (pEMP) = assay: microbe, parasite or virus in culture; assay type: cell-based, E. coli
# CFT073 E. coli cells WT = assay: MIC, E. coli CFT073 WT; assay type: cell-based; settings: Escherichia coli
# [3] = tested on: E. faecalis ATCC29212 and GW01; assay: Antibacterial activity against E. faecalis strains without β-lactamase; assay type: cell-based; settings: two strains that did not express β-lactamase
# [4] = tested on: Ec12 (CTX-M-15, ciprofloxacin resistant); assay: microbe, parasite or virus in culture; assay type: cell-based, E. coli
# CFT073 pKPC (KPC-3) = assay: microbe, parasite or virus in culture; assay type: cell-based, E. coli; settings: Escherichia coli, read-out: MIC value pKPC
# [5] = tested on: CFT073 + pSU18 + CTX-M-1 (pCTX); assay: microbe, parasite or virus in culture; assay type: cell-based, E. coli
# [6] = tested on: Ec13 (CTX-M-15, ciprofloxacin resistant); assay: microbe, parasite or virus in culture; assay type: cell-based, E. coli
# [7] = tested on: Ec16 (CTX-M-15, ciprofloxacin sensitive); assay type: cell-based, E. coli; settings: strain EC16, ciprofloxacin sensitive
# [8] = tested on: Ec19 (CTX-M-15, ciprofloxacin resistant); assay: microbe, parasite or virus in culture; assay type: cell-based, E. coli
# T1 sequence (P0AES4 whole entry, one chain of several): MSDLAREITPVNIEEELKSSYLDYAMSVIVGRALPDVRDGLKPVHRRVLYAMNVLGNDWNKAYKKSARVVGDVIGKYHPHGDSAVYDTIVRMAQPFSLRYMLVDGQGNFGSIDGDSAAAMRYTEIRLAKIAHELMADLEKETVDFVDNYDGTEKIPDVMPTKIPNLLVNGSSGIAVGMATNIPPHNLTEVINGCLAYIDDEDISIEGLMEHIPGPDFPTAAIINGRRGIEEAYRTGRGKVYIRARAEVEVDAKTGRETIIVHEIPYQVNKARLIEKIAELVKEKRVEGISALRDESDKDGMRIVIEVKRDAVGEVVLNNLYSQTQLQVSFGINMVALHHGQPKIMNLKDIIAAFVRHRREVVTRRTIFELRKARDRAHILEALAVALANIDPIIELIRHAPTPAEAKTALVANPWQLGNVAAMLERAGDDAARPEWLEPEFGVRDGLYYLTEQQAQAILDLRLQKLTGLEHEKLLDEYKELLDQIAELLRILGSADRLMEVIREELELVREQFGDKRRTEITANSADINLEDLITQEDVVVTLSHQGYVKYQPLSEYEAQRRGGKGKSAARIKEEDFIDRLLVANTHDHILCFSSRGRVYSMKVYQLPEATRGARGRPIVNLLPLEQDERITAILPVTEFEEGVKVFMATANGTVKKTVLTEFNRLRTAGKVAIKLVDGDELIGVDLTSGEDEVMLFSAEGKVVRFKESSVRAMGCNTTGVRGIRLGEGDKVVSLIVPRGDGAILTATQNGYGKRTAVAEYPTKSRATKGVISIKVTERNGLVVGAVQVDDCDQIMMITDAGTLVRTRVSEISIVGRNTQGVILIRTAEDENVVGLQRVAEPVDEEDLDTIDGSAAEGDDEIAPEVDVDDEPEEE
smiles,measurement,setting,value
"CC(=O)N[C@@H]1C(=O)N2C(C(=O)O)=C(COC(=O)c3cn(C4CC4)c4cc(N5CCNCC5)c(F)cc4c3=O)CS[C@H]12 [compound 35, (6R,7R)-7-Acetamido-3-(((1-cyclopropyl-6-fluoro-4-oxo-7-(piperazin-1-yl)-1,4-dihydroquinoline-3-carbonyl)oxy)methyl)-8-oxo-5-thia-1-azabicyclo[4.2.0]oct-2-ene-2-carboxylic Acid]",inhibition of DNA gyrase,recombinant DNA gyrase; absence of CTX-M-15,not observed
same,reduction of DNA gyrase activity,"recombinant DNA gyrase; presence of CTX-M-15, 1 μM compound",> 50%
same,MIC,"[1]; Escherichia coli, read-out: MIC value Ec17",2.5 µM
same,antibacterial activity (in words),"[1]; strain EC17, ciprofloxacin sensitive",confirmed
same,growth of CFT073 expressing empty plasmid,E. coli CFT073 pEMP,growth comparable to no treatment controls
same,killing activity in E. coli expressing CTX-M-1,E. coli CFT073 pCTX-M-1; CFU counts over time,almost identical to free ciprofloxacin
same,greater killing of E. coli expressing CTX-M-1 compared with bacteria not expressing the enzyme,"E. coli CFT073 pCTX-M-1; 6 h incubation, CFU counts",> 100 fold
same,MIC,CFT073 pNDM (NDM-1),0.04 µg/mL and 0.063 µM
same,MIC,"[2]; Escherichia coli, read-out: MIC value Ec11",0.63 µM
same,antibacterial activity (in words),"[2]; strain EC11, ciprofloxacin sensitive",confirmed
same,decrease in activity (MIC) compared to ciprofloxacin 31,"CFT073 + pSU18 (pEMP); CFT073 WT and pEMP, absence of β-lactamase",10 fold
same,MIC assay in the presence of human serum,"CFT073 + pSU18 (pEMP); CFT073 pEMP, 10 % normal human serum",equivalent to those obtained in the absence of serum
same,MIC,"CFT073 + pSU18 (pEMP); Escherichia coli, read-out: MIC value pEMP, CFT073 empty plasmid",0.312 µM
same,MIC,"CFT073 E. coli cells WT; read-out: MIC value WT, CFT073 WT",0.312 µM
same,MIC,"CFT073 E. coli cells WT; CFT073 WT, read-out: MIC value WT",0.18 µg/mL and 0.31 µM
same,activity against E. faecalis compared to ciprofloxacin,[3],reduced activity compared to ciprofloxacin
same,MIC,"[4]; Escherichia coli, read-out: MIC value Ec12",> 5 µM
same,arrest in bacterial growth (in words),"[4]; strain EC12, ciprofloxacin resistant",no arrest in bacterial growth
same,MIC,CFT073 pKPC (KPC-3),0.04 µg/mL and 0.063 µM
same,MIC assay in the presence of human serum,"[5]; CFT073 pCTX-M-1, 10 % normal human serum",equivalent to those obtained in the absence of serum
same,MIC higher than ciprofloxacin 31,"[5]; CFT073 strains expressing CTX-M-1, NDM1 or KPC",2 fold
same,MIC,"[5]; Escherichia coli, read-out: MIC value pCTX, CFT073 pCTX",0.04 µg/mL and 0.063 µM
same,MIC,"[6]; Escherichia coli, read-out: MIC value Ec13",> 5 µM
same,arrest in bacterial growth (in words),"[6]; strain EC13, ciprofloxacin resistant",no arrest in bacterial growth
same,antibacterial activity (in words),[7],confirmed
same,MIC,"[8]; Escherichia coli, read-out: MIC value Ec19",> 5 µM
same,arrest in bacterial growth (in words),"[8]; strain EC19, ciprofloxacin resistant",no arrest in bacterial growth
